Measured values: ChEMBL document CHEMBL1155460, “Prediction of acetylcholinesterase inhibitors and characterization of correlative molecular descriptors by machine learning methods” (Eur J Med Chem, 2010)

Biological target: Acetylcholinesterase (Homo sapiens, UniProt P22303)
Sequence (P22303 whole entry): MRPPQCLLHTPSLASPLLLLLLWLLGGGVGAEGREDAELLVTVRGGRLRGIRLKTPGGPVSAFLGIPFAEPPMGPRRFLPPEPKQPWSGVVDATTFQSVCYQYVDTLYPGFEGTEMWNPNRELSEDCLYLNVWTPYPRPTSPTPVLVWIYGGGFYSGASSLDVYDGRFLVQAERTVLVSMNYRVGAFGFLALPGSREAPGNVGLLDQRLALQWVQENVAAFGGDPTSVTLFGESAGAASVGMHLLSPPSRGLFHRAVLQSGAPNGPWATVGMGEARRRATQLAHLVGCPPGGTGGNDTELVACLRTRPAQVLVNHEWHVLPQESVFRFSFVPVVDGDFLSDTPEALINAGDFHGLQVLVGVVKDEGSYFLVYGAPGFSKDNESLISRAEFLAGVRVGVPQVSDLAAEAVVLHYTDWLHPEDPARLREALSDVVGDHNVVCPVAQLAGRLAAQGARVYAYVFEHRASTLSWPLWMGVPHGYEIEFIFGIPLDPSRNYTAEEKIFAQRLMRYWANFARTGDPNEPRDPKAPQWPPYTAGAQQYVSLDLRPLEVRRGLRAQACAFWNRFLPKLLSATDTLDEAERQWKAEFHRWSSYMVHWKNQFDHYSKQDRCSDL

SMILES	IC50 [nM]
O=C1c2ccc([N+](=O)[O-])cc2C(=O)N1CCC1CCN(Cc2ccccc2)CC1	12.5
O=C1c2ccccc2C(=O)N1CCC1CCN(Cc2ccccc2)CC1	80
CC(=O)N(C)c1cccc2n1cc(-c1ccc(OC(=O)N(C)C)cc1)[n+]2C	24500
CNC(=O)Oc1ccc(-c2cn3c(C)cccc3[n+]2C)cc1	4000
CNC(=O)Oc1ccc(-c2cn3c(NC(C)=O)cccc3[n+]2C)cc1	1100
CN(C)C(=O)Oc1cccc(-c2cn3ccccc3[n+]2C)c1	7100
Cc1cccc2n1cc(-c1cccc(OC(=O)N(C)C)c1)[n+]2C	24000
CN(C)C(=O)Oc1cccc(-c2cn3c(C(F)(F)F)cccc3[n+]2C)c1	33600
COc1cccc2n1cc(-c1cccc(OC(=O)N(C)C)c1)[n+]2C	20500
CC(=O)Nc1cccc2n1cc(-c1cccc(OC(=O)N(C)C)c1)[n+]2C	2500
CNC(=O)Oc1cccc(-c2cn3ccccc3[n+]2C)c1	350
COc1ccc2c(c1OC)C(=O)CC2CCC1CCN(Cc2ccccc2)CC1 (stereo not given)	8
CCCCCCCNC(=O)Oc1ccc2c(c1)[C@]1(C)CCN(C)[C@@H]1C2	114
CCCCCCNC(=O)Oc1ccc2c(c1)[C@]1(C)CCN(C)[C@@H]1C2	10
CNC(=O)Oc1cccc(-c2cn3c(NC(C)=O)cccc3[n+]2C)c1	4500
CCCCCCCNC(=O)Oc1ccc2c(c1)[C@]1(C)CCN(CC)[C@@H]1C2	58
CN1CCCc2cc(C(=O)CCC3CCN(Cc4ccccc4)CC3)ccc21	24
O=C(CCC1CCN(Cc2ccccc2)CC1)c1ccc2c(c1)CCCN2	54
O=C(CCC1CCN(Cc2ccccc2)CC1)c1ccc2c(c1)CCCN2c1ccccc1	54
CC(=O)Nc1cccc2n1cc(-c1ccc(OC(=O)N(C)C)cc1)[n+]2C	700
O=C(CCC1CCN(Cc2ccccc2)CC1)c1ccc2c(c1)N(c1ccccc1)CCC2	1490
O=C(Nc1ccccc1)c1ccc2c(c1)C(=O)N(CCC1CCN(Cc3ccccc3)CC1)C2=O	2.2
CNC(=O)Oc1ccc(-c2cn3ccccc3[n+]2C)cc1	19500
CCN1CC[C@@]2(C)c3cc(OC(=O)NC)ccc3C[C@@H]12	38
c1ccc(CN2CCC(CNc3nsc4ccccc34)CC2)cc1	99
Cc1cn2cc(C(N)=O)ccc2[n+]1C	27000
CN(C)C(=O)Oc1ccc(-c2cn3ccccc3[n+]2C)cc1	17100
CN(C)C(=O)Oc1ccc(-c2cn3c(C(F)(F)F)cccc3[n+]2C)cc1	10000

SMILES	IC50 [nM]
CCN1CC[C@@]2(C)c3cc(OC(=O)Nc4ccccc4)ccc3C[C@@H]12	176
CCCCCCNC(=O)Oc1ccc2c(c1)[C@]1(C)CCN(CCC)[C@@H]1C2	62
CCCCCCCNC(=O)Oc1ccc2c(c1)[C@]1(C)CCN(Cc3ccccc3)[C@@H]1C2	506
CCCCCCNC(=O)Oc1ccc2c(c1)C1CCN(CCC)C1C2 (stereo not given)	546
CN(C)C(=O)Nc1cccc2n1cc(-c1ccc(OC(=O)N(C)C)cc1)[n+]2C	1600
COc1cccc2n1cc(-c1ccc(OC(=O)N(C)C)cc1)[n+]2C	8100
CN(C)C(=O)Oc1ccc(-c2cn3c(NC=O)cccc3[n+]2C)cc1	1200
CN(C)C(=O)Oc1ccc(-c2cn3c(NC(=O)c4ccccc4)cccc3[n+]2C)cc1	200
CNC(=O)Nc1cccc2n1cc(-c1ccc(OC(=O)N(C)C)cc1)[n+]2C	1350
CCCCNC(=O)Oc1ccc2c(c1)[C@]1(C)CCN(CC)[C@@H]1C2	90
CCCNC(=O)Oc1ccc2c(c1)[C@]1(C)CCN(CC)[C@@H]1C2	154
CCN1CC[C@@]2(C)c3cc(OC(=O)NC(C)c4ccccc4)ccc3C[C@@H]12 (stereo not given in full)	1330
CN(C)C(=O)Oc1cccc(-c2cn3c(Cl)cccc3[n+]2C)c1	12600
C[n+]1c(-c2ccccc2)cn2cc(C(N)=O)ccc21	9500
COC(=O)Nc1ccc2n(c1)cc(-c1ccccc1)[n+]2C	50000
COC(=O)Nc1cccc2n1cc(-c1ccc(OC(=O)N(C)C)cc1)[n+]2C	1100
c1ccc(CN2CCC(CNc3n[nH]c4ccccc34)CC2)cc1	120
CCCCCCCNC(=O)Oc1ccc2c(c1)[C@]1(C)CCN(CCC)[C@@H]1C2	93
CCCCCCNC(=O)Oc1ccc2c(c1)[C@@H]1CCN(CC)[C@@H]1C2	208
CCCCNC(=O)Oc1ccc2c(c1)C1CCN(CC)C1C2 (stereo not given)	1080
CCCNC(=O)Oc1ccc2c(c1)C1CCN(CC)C1C2 (stereo not given)	2190
CCN1CCC2c3cc(OC(=O)NC)ccc3CC21 (stereo not given)	253
CCCCCCCNC(=O)Oc1ccc2c(c1)C1CCN(CCC)C1C2 (stereo not given)	629
CN(C)C(=O)Oc1ccc(-c2cn3c(Cl)cccc3[n+]2C)cc1	12600
Cc1cccc2n1cc(-c1ccc(OC(=O)N(C)C)cc1)[n+]2C	1300
O=C(CCC1CCN(Cc2ccccc2)CC1)c1ccc2c(c1)CCN2c1ccccc1	68
CCCCCCCNC(=O)Oc1ccc2c(c1)[C@@H]1CCN(CC)[C@@H]1C2	381
